According to ChEMBL document CHEMBL5352417, “Design, synthesis, and biological evaluation of aromatic tertiary amine derivatives as selective butyrylcholinesterase inhibitors for the treatment of Alzheimer's disease” (Eur J Med Chem, 2022):
Activity calls are given as the source filed them. No cut-off for these calls is given here.

Assays:
[1] = target: Acetylcholinesterase (Electrophorus electricus) (UniProt O42275); test: Inhibition of electric eel AchE using acetylthiocholine iodide as substrate at <10 uM measured for 3 mins by Ellman's method relative to control
[2] = target: Cholinesterase (Equus caballus) (UniProt P81908); test: Inhibition of horse serum BuChE using butyrylthiocholine iodide as substrate at <10 uM measured for 3 mins by Ellman's method relative to control; assay type: cell-free
Cholinesterase [3] = target: Cholinesterase (Equus caballus, UniProt P81908); test: Inhibition of horse serum BuChE using butyrylthiocholine iodide as substrate measured for 3 mins by Ellman's method; assay type: cell-free
Cholinesterase [4] = target: T1, Cholinesterase (Homo sapiens, UniProt P06276); test: Inhibition of human BChE using butyrylthiocholine iodide as substrate measured for 3 mins by Ellman's method
Cholinesterase [5] = target: T1, Cholinesterase; test: Non-competitive inhibition of BChE (unknown origin) using butyrylthiocholine iodide as substrate upto 400 nM measured for 5 mins by Lineweaver-Burk plot analysis
[6] = Effective permeability of compound at 25 ug/ml incubated for 18 hrs by PAMPA-BBB assay; assay type: ADME; conditions: dose 25 µg/ml, read-out: Peff
[7] = Neurotoxicity against rat PC12 cells incubated for 24 hrs by MTT assay; assay type: toxicity, cell-based, PC-12; conditions: read-out: LD50
[8] = Neurotoxicity against human SH-SY5Y cells assessed as survival rate incubated for 24 hrs by MTT assay relative to control; assay type: toxicity, cell-based; parameters: concentration or dose not given beside the values; conditions: read-out: Survival
[9] = Neurotoxicity against mouse BV-2 cells incubated for 24 hrs by MTT assay; assay type: toxicity, cell-based; conditions: read-out: LD50
[10] = Neurotoxicity against mouse HT-22 cells incubated for 24 hrs by MTT assay; assay type: toxicity, cell-based; conditions: read-out: LD50
SH-SY5Y = test: Neuroprotective activity against amyloid beta (1 to 42)-induced injury in human SH-SY5Y cells assessed as cell viability by MTT assay; assay type: functional, cell-based; conditions: dose 0.5-50 µM
[11] = Acute toxicity in fasted ICR mouse assessed as animal death at 1 g/kg, po followed by food supply after 2 hrs post compound administration measured for 14 days; assay type: organism-based; conditions: in vivo, 1000 mg/kg, 336 h, time 14 day
[12] = Acute toxicity in fasted ICR mouse assessed as change in animal growth at 1 g/kg, po administered on day 1 followed by food supply after 2 hrs post compound administration measured after few days after first day administration; assay type: organism-based; conditions: in vivo, 1000 mg/kg
[13] = Acute toxicity in fasted ICR mouse assessed as obvious toxicity at 1 g/kg, po followed by food supply after 2 hrs post compound administration measured for 14 days; assay type: organism-based; conditions: in vivo, 1000 mg/kg, 336 h, time 14 day
Mus musculus [14] = test: Antialzheimer activity against amyloid beta (1 to 42)-induced mouse model of cognitive dysfunction assessed as latency time at 15 mg/kg, po measured for 14 days by Morris Water maze method; assay type: functional, ICR; conditions: time 14 day
Mus musculus [15] = test: Antialzheimer activity against amyloid beta (1 to 42)-induced mouse model of cognitive dysfunction assessed as reaching target platform at 15 mg/kg, po measured for 14 days by Morris Water maze method; assay type: functional, organism-based; conditions: ICR, time 14.0 day

T1 sequence (P06276 whole entry): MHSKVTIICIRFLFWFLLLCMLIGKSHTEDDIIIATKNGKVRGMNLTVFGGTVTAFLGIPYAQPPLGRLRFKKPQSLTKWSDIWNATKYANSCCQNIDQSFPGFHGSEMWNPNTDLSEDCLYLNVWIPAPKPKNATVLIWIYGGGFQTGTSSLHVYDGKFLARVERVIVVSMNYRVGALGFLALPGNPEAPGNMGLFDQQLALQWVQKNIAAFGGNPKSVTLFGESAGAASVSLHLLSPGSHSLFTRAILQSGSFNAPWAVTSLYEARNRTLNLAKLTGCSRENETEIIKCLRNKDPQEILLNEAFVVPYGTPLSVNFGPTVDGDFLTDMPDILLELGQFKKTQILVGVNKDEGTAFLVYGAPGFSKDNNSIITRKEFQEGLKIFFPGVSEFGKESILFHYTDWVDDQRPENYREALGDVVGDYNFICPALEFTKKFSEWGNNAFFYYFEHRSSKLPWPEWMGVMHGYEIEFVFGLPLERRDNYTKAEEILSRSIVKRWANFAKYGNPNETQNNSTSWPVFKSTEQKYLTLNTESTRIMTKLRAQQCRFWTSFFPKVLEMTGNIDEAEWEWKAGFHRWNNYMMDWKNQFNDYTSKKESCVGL
Sequence of Cholinesterase (Equus caballus) (P81908 whole entry): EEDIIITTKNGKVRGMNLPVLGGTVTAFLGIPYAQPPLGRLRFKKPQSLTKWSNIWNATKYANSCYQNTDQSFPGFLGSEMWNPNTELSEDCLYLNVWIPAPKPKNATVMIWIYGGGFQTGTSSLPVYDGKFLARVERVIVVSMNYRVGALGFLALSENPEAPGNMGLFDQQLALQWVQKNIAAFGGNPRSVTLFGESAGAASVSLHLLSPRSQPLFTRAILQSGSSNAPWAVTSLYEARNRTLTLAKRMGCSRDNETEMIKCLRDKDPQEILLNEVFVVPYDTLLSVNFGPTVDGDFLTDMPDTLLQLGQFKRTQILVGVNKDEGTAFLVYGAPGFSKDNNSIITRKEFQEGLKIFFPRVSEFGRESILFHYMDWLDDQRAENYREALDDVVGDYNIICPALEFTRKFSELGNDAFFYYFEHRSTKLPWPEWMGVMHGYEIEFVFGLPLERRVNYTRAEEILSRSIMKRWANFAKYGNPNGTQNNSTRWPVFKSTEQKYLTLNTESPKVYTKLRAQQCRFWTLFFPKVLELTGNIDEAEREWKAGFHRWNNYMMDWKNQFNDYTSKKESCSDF
Sequence of Cholinesterase (Equus caballus, UniProt P81908) (P81908 whole entry): as above
Sequence of Acetylcholinesterase (Electrophorus electricus) (O42275 24-633 limits assumed): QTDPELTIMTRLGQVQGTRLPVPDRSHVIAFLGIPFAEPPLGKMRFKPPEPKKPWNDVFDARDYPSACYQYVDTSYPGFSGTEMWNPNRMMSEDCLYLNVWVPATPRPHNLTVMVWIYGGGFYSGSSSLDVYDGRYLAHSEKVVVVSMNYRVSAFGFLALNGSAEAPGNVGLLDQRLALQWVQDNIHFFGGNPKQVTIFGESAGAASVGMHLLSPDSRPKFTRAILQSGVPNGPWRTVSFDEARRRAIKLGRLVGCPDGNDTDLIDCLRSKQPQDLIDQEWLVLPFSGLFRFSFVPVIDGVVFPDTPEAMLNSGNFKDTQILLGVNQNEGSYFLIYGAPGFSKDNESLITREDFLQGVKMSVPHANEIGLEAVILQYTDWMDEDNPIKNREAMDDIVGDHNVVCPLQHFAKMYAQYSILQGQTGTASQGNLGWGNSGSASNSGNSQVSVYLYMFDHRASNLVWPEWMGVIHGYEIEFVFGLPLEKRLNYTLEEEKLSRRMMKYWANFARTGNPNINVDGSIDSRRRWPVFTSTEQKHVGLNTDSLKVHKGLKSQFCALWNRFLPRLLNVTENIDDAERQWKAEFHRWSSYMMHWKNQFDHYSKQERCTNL

Cc1ccccc1NC(=O)CN(Cc1ccc2ccccc2c1)CC(C)C
inhibition [1]: 22.2%
inhibition [2]: 94.3%
IC50 (Cholinesterase [3]): 0.22 µM
IC50 (Cholinesterase [4]): 0.016 µM
inhibition (Cholinesterase [5]): Active
Papp at 18 h, 25 ug/ml [6]: 131 nm/s
CC50 at 24 h [7]: 78.8 µM
viability at 24 h [8]: 47.8%
CC50 at 24 h [9]: 39.3 µM
CC50 at 24 h [10]: 18.9 µM
Activity (SH-SY5Y): Dose-Dependent Effect
Activity [11]: Non-Toxic
Activity [12]: Toxic
Activity [13]: Non-Toxic
Time (Mus musculus [14]): 11.4 s
Activity (Mus musculus [15]): Active
